Test results as given in US5219741A, “Method of making L-proline using an N-acyl-L-protine acylase” (priority 1990, dated 1993).

System: Comamonas testosteroni DSM 5416
Assay: Growth of the strain in culture medium (OD600)
Format: cell-based
Settings: (NH4)2 SO4 1 g/l in culture medium; 23 hours
Procedure: Strains which appeared uniform according to the colony morphology and the microscopic image were then cultivated in 100 ml liquid medium (500 ml Erlenmeyer flask with top and 4 lateral baffles) at 30° C. on a rotary agitator machine at 200 rpms. The culture medium had the following composition: […]
(§1) The carbon source of the culture medium with a concentration of 4 g/l was varied and the influence on growth and acylase formation determined.
(§2) The concentration of N-acetyl-L-proline was varied in a range of 1 g/l-5 g/l in steps of 1 g/l in the culture medium as described in Example 1.
(§3) The concentration of (NH4)2 SO4 was varied in a range of 1 g/l-5 g/l in steps of 1 g/l in the culture medium as described in Example 1.
(§4) The concentration of yeast extract was varied in a range of 1 g/l-5 g/l in steps of 1 g/l in the culture medium as described in Example 1.
(§5) The N-acetyl-L-proline concentration was reduced to 0.2 to 1.0 g/l in the culture medium as described in Example 1 and 4 g/l Na acetate were additionally added.
(§6) The method described above under f) was followed. However, the inductor, N-acetyl-L-proline, was not added to the nutrient medium until the late exponential growth phase after an incubation time of 12 hours.
(§7) The method described above under f) was followed. In addition to N-acetyl-L-proline, various N-acetyl- and N-chloroacetyl amino acids were added to the nutrient medium in a concentration of 1 g/l.

Compound	Growth (OD600)
N.N.O=S(=O)(O)O [(NH4)2 SO4]	5.24 OD600

Same assay, conditions: (NH4)2 SO4 2 g/l in culture medium; 23 hours

Compound	Growth (OD600)
N.N.O=S(=O)(O)O [(NH4)2 SO4]	5.67 OD600

Same assay, conditions: (NH4)2 SO4 3 g/l in culture medium; 23 hours

Compound	Growth (OD600)
N.N.O=S(=O)(O)O [(NH4)2 SO4]	5.47 OD600

Same assay, conditions: (NH4)2 SO4 4 g/l in culture medium; 23 hours

Compound	Growth (OD600)
N.N.O=S(=O)(O)O [(NH4)2 SO4]	5.44 OD600

Same assay, conditions: (NH4)2 SO4 5 g/l in culture medium; 23 hours

Compound	Growth (OD600)
N.N.O=S(=O)(O)O [(NH4)2 SO4]	5.47 OD600

Same assay, conditions: carbon source 4 g/l in culture medium

Compound	Growth (OD600)
phenylacetate	No growth
OC[C@H]1O[C@H](O[C@H]2[C@H](O)[C@@H](O)[C@H](O)O[C@@H]2CO)[C@H](O)[C@@H](O)[C@@H]1O [maltose]	No growth
N[C@@H](CO)C(=O)O [Lserin]	No growth
O=C[C@H](O)[C@@H](O)[C@H](O)[C@H](O)CO [glucose]	No growth
O=C(O)[C@@H]1CCCN1 [L-proline]	3.9 OD600
OC[C@H]1O[C@@](CO)(O[C@H]2O[C@H](CO)[C@@H](O)[C@H](O)[C@H]2O)[C@@H](O)[C@@H]1O [saccharose]	No growth
O=C(O)CC(O)C(=O)O (stereo not drawn) [Malate]	3.4 OD600
N[C@@H](Cc1c[nH]cn1)C(=O)O [Lhistidine]	No growth
CC(O)C(=O)O (stereo not drawn) [Lactate]	3.0 OD600
N[C@@H](Cc1c[nH]c2ccccc12)C(=O)O [Ltryptophane]	No growth
O=C[C@@H](O)[C@@H](O)[C@H](O)[C@H](O)CO [mannose]	No growth
CC(=O)C(=O)O [Pyruvate]	2.4 OD600
O=C(O)CC(O)(CC(=O)O)C(=O)O [citrate]	No growth
CCCC(=O)O [Butyrate]	1.8 OD600
OCC(O)CO [Glycerol]	1.1 OD600
O=C[C@H](O)[C@@H](O)[C@H](O)CO [xylose]	No growth
CC(C)C[C@H](N)C(=O)O [L-leucine]	2.6 OD600
N=C(N)NCCC[C@H](N)C(=O)O [Larginine]	No growth
O=C(CO)[C@@H](O)[C@H](O)[C@H](O)CO [fructose]	No growth
CC(=O)O [Acetate]	2.3 OD600
N[C@@H](CC(=O)O)C(=O)O [L-aspartate]	2.0 OD600
OC[C@H]1O[C@@H](O[C@H]2[C@H](O)[C@@H](O)C(O)O[C@@H]2CO)[C@H](O)[C@@H](O)[C@H]1O (stereo partly drawn) [lactose]	No growth
CCC(=O)O [Propionate]	1.9 OD600

System: N-acyl-L-proline acylase formation in Comamonas testosteroni DSM 5416
Assay: Acylase formation: specific activity of N-acyl-L-proline acylase in crude extract
Format: cell-based
Settings: not given
Procedure: After 24 to 48 hours, the cell-containing nutrient medium was centrifuged (15 min., 4,500 g in a cooling centrifuge), the cells were washed twice with 0.9% (w/v) NaCl solution and resuspended in 10 ml 0.1M tris-HCl buffer, pH 7.0.
The microorganisms of this suspension were macerated by ultrasound treatment (Sonifier-Cell Disrupter B-30 of the firm Branson Sonic Power Co., Danbury, Conn., USA) (2 minutes pulsating, corresponding to 1 minute of pure ultrasonic radiation. The cell fragments and non-macerated cells were centrifuged in a cooled centrifuge 30 minutes at 40,000 g and 5° C. The clear supernatant (=crude extract) was used in an enzyme test.
The reaction was started by adding crude extract and the reaction batches customarily incubated for 10 minutes at 30° C. The incubation time and the amount of crude extract were selected so that the linearity range of the enzymatic reaction and of the subsequent proline detection were not exceeded.
The enzymatic reaction was interrupted by pipetting 50 μl of the enzyme sample into 1.25 ml 100% acetic acid. Subsequently, 0.45 ml 0.1M tris-HCl buffer pH 7.0 and 1.25 ml ninhydrin reagent (3 g ninhydrin dissolved by heating in a mixture of 60 ml 100% acetic acid and 40 ml 6M phosphoric acid) were added. The ninhydrin reagent was freshly prepared daily. The test tubes were loosely closed with screw-on caps, incubated 30 minutes at 100° C. and subsequently cooled down in an ice bath.
The L-proline, liberated by the enzymatic hydrolysis, forms a red dye with ninhydrin at 100° C. The absorption of the red dye was measured in a spectrophotometer at 480 nm relative to a control batch without crude extract (=substrate blank). The concentration of the L-proline produced was determined using a straight calibration line with L-proline in a range of 5 to 100 nmoles per 50 μl specimen. The enzyme activity was indicated in international units; thus, one unit (U) corresponded to an amount of 1 μmole L-proline produced per minute.
The protein determination was carried out with a protein-determination kit of the firm Pierce Chemical Co., Rockford, Ill., USA, according to Bradford, Anal. Biochem. 72, pp. 248-254 (1976).
as §1, §2, §3, §4, §5, §6, §7

Compound	Optimum concentration in the culture medium for acylase formation	Acylase formation / induction (in words)
N.N.O=S(=O)(O)O [(NH4)2 SO4]	2 g/L	
CC(=O)O [Acetate]		not repressed

Same assay, conditions: (NH4)2 SO4 1 g/l in culture medium; 23 hours

Compound	Spec. activity (U/mg)
N.N.O=S(=O)(O)O [(NH4)2 SO4]	1.71 U/mg

Same assay, conditions: (NH4)2 SO4 2 g/l in culture medium; 23 hours

Compound	Spec. activity (U/mg)
N.N.O=S(=O)(O)O [(NH4)2 SO4]	1.91 U/mg

Same assay, conditions: (NH4)2 SO4 3 g/l in culture medium; 23 hours

Compound	Spec. activity (U/mg)
N.N.O=S(=O)(O)O [(NH4)2 SO4]	1.53 U/mg

Same assay, conditions: (NH4)2 SO4 4 g/l in culture medium; 23 hours

Compound	Spec. activity (U/mg)
N.N.O=S(=O)(O)O [(NH4)2 SO4]	1.59 U/mg

Same assay, conditions: (NH4)2 SO4 5 g/l in culture medium; 23 hours

Compound	Spec. activity (U/mg)
N.N.O=S(=O)(O)O [(NH4)2 SO4]	1.32 U/mg

Same assay, conditions: carbon source 4 g/l in culture medium

Compound	Spec. activity (U/mg)
O=C(O)[C@@H]1CCCN1 [L-proline]	< 0.01 U/mg
O=C(O)CC(O)C(=O)O (stereo not drawn) [Malate]	< 0.01 U/mg
CC(O)C(=O)O (stereo not drawn) [Lactate]	< 0.01 U/mg
CC(=O)C(=O)O [Pyruvate]	< 0.01 U/mg
CCCC(=O)O [Butyrate]	< 0.01 U/mg
OCC(O)CO [Glycerol]	< 0.01 U/mg
CC(C)C[C@H](N)C(=O)O [L-leucine]	< 0.01 U/mg
CC(=O)O [Acetate]	< 0.01 U/mg
N[C@@H](CC(=O)O)C(=O)O [L-aspartate]	< 0.01 U/mg
CCC(=O)O [Propionate]	< 0.01 U/mg
